{"source": "patent US20220387604A1", "about": "“SELECTIVE DUAL HISTONE DEACETYLASE 6/8 (HDAC6/8) DEGRADERS AND METHODS OF USE THEREOF” (DANA-FARBER CANCER INSTITUTE, INC., priority 2019, published 2022)", "key": {"[1]": {"molecular_target": "T1, full length human HDAC8-EGFP (Homo sapiens, UniProt Q9BY41)", "T1 construct": "Cells stably expressing the full length human HDAC8-EGFP with mCherry reporter; expressed in transfected cells; Cilantro2 vector (Addgene, 74450)", "T1 sequence (Q9BY41 1-377)": "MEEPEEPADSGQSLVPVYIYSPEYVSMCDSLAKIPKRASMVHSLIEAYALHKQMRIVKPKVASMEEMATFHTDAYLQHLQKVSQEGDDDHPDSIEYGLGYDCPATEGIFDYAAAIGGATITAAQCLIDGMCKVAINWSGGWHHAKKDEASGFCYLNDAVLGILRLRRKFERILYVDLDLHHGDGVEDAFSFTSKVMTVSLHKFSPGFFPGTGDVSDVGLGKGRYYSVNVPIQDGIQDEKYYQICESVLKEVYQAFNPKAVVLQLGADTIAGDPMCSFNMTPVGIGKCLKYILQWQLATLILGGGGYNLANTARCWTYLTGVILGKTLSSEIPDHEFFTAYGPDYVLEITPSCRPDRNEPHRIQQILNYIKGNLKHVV", "assay": "HDAC8 reporter assay (HDAC8-EGFP with mCherry reporter)", "assay_type": "cell-based", "details": "5 hour treatment, FIG. 6; hook effect at higher concentrations", "description": "Cells stably expressing the full length human HDAC8-EGFP with mCherry reporter in Cilantro2 vector (Addgene, 74450) were seeded at 30-50% confluency in 384-well plates with 50 μL FluoroBrite™ DMEM media (Thermo Fisher Scientific, A18967) containing 10% FBS per well a day before compound treatment. Compounds were dispensed using a D300e Digital Dispenser (HP), normalized to 0.5% DMSO, and incubated with cells for 5 hours. The assay plate was imaged immediately using an Acumen® High Content Imager (TTP Labtech) with 488 nm and 561 nm lasers in […] per well format. The resulting images were analyzed using CellProfiler™.\nA series of image analysis steps (‘image analysis pipeline’) was constructed. First, the red and green channels were aligned and cropped to target the middle of each well (to avoid analysis of heavily clumped cells at the edges), and a background illumination function was calculated for both red and green channels of each well individually and subtracted to correct for illumination variations across the 384-well plate from various sources of error. An additional step was then applied to the green channel to suppress the analysis of large auto fluorescent artifacts and enhance the analysis of cell specific fluorescence by way of selecting for objects under a given size, 30 A.U., and with a given shape, speckles. mCherry-positive cells were then identified in the red channel filtering for objects between 8-60 pixels in diameter and using intensity to distinguish between clumped objects. The green channel was then segmented into GFP positive and negative areas and objects were labeled as GFP positive if at least 40% of it overlapped with a GFP positive area. The fraction of GFP-positive cells/mCherry-positive cells in each well was then calculated, and the green and red images were rescaled for visualization. The values for the concentrations that lead to a 50% degradation (DC50) were calculated using the nonlinear fit variable slope model in GraphPad Prism software."}, "HDAC6/8": {"tested_on": "HDAC6/8", "assay": "Quantitative proteomics of cellular protein abundance in Kelly cells: HDAC6/8", "assay_type": "cell-based, human", "details": "moderated t-test, scatter plots FIG. 2A-2C, 4A-4B", "description": "Lysis buffer (8 M Urea, 50 mM NaCl, 50 mM 4-(2hydroxyethyl)-1-piperazineethanesulfonic acid (EPPS) pH 8.5, protease and phosphatase inhibitors from Roche®) were added to the cell pellets and homogenized by 20 passes through a 21 gauge (1.25 in. long) needle to achieve a cell lysate with a protein concentration between 1-4 mg mL^−1. A micro-BCA assay (Pierce™) was used to determine the final protein concentration in the cell lysate. 200 μg of protein for each sample were reduced and alkylated as described in Donovan et al., Elife 7:e38430 (2018).\nProteins were precipitated using methanol/chloroform. Four volumes of methanol were added to the cell lysate, followed by one volume of chloroform, and finally three volumes of water. The mixture was vortexed and centrifuged to separate the chloroform phase from the aqueous phase. The precipitated protein was washed with three volumes of methanol, centrifuged and the resulting washed precipitated protein was allowed to air dry. The precipitated protein was resuspended in 4 M Urea, 50 mM HEPES pH 7.4, followed by dilution to 1 M urea with the addition of 200 mM EPPS, pH 8. Proteins were first digested with LysC (1:50; enzyme:protein) for 12 hours at room temperature. The LysC digestion was diluted to 0.5 M Urea with 200 mM EPPS pH 8 followed by digestion with trypsin (1:50; enzyme:protein) for 6 hours at 37° C. Tandem mass tag (TMT) reagents (Thermo Fisher Scientific) were dissolved in anhydrous acetonitrile (ACN) according to manufacturer's instructions.\nAnhydrous ACN was added to each peptide sample to a final concentration of 30% v/v, and labeling was induced with the addition of TMT reagent to each sample at a ratio of 1:4 peptide:TMT label. The 10-plex labeling reactions were performed for 1.5 hours at room temperature and the reaction quenched by the addition of hydroxylamine to a final concentration of 0.3% for 15 minutes at room temperature. The sample channels were combined at a 1:1:1:1:1:1:1:1:1:1:1 ratio, desalted using C18 solid phase extraction cartridges (Waters®) and analyzed by LC-MS for channel ratio comparison. Samples were then combined using the adjusted volumes determined in the channel ratio analysis and dried down in a speed vacuum. The combined sample was then resuspended in 1% formic acid, and acidified (pH 2-3) before being subjected to desalting with C18 SPE (Sep-Pak®, Waters®). Samples were then offline fractionated into 96 fractions by high pH reverse-phase HPLC (Agilent® LC1260) through an aeris peptide xb-c18 column (Phenomenex®) with mobile phase A containing 5% acetonitrile and 10 mM NH4HCO3 in LC-MS grade H2O, and mobile phase B containing 90% acetonitrile and 10 mM NH4HCO3 in LC-MS grade H2O (both pH 8.0). The 96 resulting fractions were then pooled in a non-continuous manner into 24 fractions and these fractions were used for subsequent mass spectrometry analysis.\nData were collected using an Orbitrap Fusion™ Lumos™ mass spectrometer (Thermo Fisher Scientific, San Jose, Calif., USA) coupled with a Proxeon EASY-nLC™ 1200 LC pump (Thermo Fisher Scientific). Peptides were separated on an EasySpray™ ES803 75 μm inner diameter microcapillary column (ThermoFisher Scientific).\nEach analysis used an MS3-based TMT method as described in McAlister et al., Anal. Chem. 86(14):7150-7158 (2014). The data were acquired using a mass range of m/z 340-1350, resolution 120,000, automatic gain control (AGC) target 1×10^6, maximum injection time 100 ms, dynamic exclusion of 120 seconds for the peptide measurements in the Orbitrap Fusion™ Lumos™ mass spectrometer. Data dependent MS2 spectra were acquired in the ion trap with a normalized collision energy (NCE) set at 55%, AGC target set to 1.5×10^5 and a maximum injection time of 150 ms. […]"}}}
{"compound": "O=C(/C=C/c1ccc(CN(CCOCCOCCOCCOCCNc2cccc3c2C(=O)N(C2CCC(=O)NC2=O)C3=O)CCc2c[nH]c3ccccc23)cc1)NO", "note": "(stereo not drawn) [Compound 5, (E)-3-(4-(2-(2-(1H-indol-3-yl)ethyl)-16-((2-(2,6-dioxopiperidin-3-yl)-1,3-dioxoisoindolin-4-yl)amino)-5,8,11,14-tetraoxa-2-azahexadecyl)phenyl)-N-hydroxyacrylamide]", "values": [{"measurement": "degradation of GFP tagged HDAC8 in the reporter cell lines", "setting": "[1]", "result": "degradation of GFP tagged HDAC8"}, {"measurement": "reduction in HDAC6/8 protein levels compared to DMSO treated cells", "setting": "HDAC6/8", "result": "significant reduction"}]}
{"compound": "O=C(/C=C/c1ccc(CN(CCOCCOCCOCCNc2cccc3c2C(=O)N(C2CCC(=O)NC2=O)C3=O)CCc2c[nH]c3ccccc23)cc1)NO", "note": "(stereo not drawn) [Compound 4, (E)-3-(4-(2-(2-(1H-indol-3-yl)ethyl)-13-((2-(2,6-dioxopiperidin-3-yl)-1,3-dioxoisoindolin-4-yl)amino)-5,8,11-trioxa-2-azatridecyl)phenyl)-N-hydroxyacrylamide]", "values": [{"measurement": "degradation of GFP tagged HDAC8 in the reporter cell lines", "setting": "[1]", "result": "degradation of GFP tagged HDAC8"}]}
